Measurements: the kinase profiling compilation of Christmann-Franck et al. (2016)

How the values were obtained:
Test in all cases: KINOMEscan competition binding
MYLK3 (human) = MYLK3 (human) (UniProt Q32MK0); conditions: compound 10.0 µM
PDGFRB (human) = PDGFRB (human) (UniProt P09619); conditions: compound 10.0 µM
PIM2 (human) = PIM2 (human) (UniProt Q9P1W9); conditions: compound 10.0 µM
MAPK8 (human) = MAPK8 (human) (UniProt P45983); conditions: compound 10.0 µM
[1] = tested on: KIT (human), P10721 [V559D]; conditions: compound 10.0 µM
Chain of KIT (human), P10721 [V559D] (P10721 whole entry V559D, looked up): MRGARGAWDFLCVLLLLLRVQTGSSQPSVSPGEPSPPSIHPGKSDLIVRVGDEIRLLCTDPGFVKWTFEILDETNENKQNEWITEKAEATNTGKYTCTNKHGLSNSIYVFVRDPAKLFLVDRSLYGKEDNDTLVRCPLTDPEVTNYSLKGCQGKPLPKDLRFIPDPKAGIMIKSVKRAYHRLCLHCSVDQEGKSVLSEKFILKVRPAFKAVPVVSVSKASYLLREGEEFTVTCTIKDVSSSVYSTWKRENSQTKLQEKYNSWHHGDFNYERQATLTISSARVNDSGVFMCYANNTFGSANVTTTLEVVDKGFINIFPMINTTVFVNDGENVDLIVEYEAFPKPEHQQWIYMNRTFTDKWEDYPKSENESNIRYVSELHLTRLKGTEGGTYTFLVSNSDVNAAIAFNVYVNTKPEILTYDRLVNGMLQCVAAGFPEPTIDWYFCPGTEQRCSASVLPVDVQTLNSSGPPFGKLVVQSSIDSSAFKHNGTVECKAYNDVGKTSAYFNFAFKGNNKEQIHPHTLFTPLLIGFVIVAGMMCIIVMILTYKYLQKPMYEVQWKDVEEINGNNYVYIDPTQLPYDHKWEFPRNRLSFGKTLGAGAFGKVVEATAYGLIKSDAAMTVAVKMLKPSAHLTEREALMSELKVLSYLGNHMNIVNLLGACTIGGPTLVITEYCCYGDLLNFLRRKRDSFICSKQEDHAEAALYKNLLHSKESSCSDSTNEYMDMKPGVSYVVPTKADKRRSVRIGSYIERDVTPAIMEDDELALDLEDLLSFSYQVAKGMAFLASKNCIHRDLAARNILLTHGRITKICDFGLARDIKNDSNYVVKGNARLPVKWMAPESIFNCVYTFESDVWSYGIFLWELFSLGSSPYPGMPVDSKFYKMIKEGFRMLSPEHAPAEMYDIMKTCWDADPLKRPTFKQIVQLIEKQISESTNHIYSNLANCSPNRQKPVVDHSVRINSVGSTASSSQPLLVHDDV

RPS6KA6 KD2 (human) = RPS6KA6 KD2 (human) (UniProt Q9UK32); conditions: compound 10.0 µM
PIP5K1A (human) = PIP5K1A (human) (UniProt Q99755); conditions: compound 10.0 µM
RPS6KA2 KD2 (human) = RPS6KA2 KD2 (human) (UniProt Q15349); conditions: compound 10.0 µM
Chain of RPS6KA2 KD2 (human) (Q15349 whole entry, looked up): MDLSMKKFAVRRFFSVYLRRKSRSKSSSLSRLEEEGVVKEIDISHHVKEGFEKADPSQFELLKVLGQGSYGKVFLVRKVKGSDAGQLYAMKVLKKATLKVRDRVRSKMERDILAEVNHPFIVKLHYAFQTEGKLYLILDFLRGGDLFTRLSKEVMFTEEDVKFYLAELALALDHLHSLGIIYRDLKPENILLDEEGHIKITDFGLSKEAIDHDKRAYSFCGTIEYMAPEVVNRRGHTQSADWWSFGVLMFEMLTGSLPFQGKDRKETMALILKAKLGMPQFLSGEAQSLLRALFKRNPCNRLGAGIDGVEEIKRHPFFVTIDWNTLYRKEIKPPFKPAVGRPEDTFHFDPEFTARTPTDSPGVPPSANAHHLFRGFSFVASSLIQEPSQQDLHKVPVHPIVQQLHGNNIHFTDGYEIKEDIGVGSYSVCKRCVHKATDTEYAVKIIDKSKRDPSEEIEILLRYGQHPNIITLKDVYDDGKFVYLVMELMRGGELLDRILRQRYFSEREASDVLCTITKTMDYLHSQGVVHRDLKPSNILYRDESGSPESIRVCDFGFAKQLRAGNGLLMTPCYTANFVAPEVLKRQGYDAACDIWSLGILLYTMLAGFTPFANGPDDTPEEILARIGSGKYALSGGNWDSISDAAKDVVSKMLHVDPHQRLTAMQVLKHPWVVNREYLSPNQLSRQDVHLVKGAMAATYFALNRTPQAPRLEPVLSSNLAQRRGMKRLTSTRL

TTK (human) = TTK (human) (UniProt P33981); conditions: compound 10.0 µM
TNK1 (human) = TNK1 (human) (UniProt Q13470); conditions: compound 10.0 µM
Chain of TNK1 (human) (Q13470 whole entry, looked up): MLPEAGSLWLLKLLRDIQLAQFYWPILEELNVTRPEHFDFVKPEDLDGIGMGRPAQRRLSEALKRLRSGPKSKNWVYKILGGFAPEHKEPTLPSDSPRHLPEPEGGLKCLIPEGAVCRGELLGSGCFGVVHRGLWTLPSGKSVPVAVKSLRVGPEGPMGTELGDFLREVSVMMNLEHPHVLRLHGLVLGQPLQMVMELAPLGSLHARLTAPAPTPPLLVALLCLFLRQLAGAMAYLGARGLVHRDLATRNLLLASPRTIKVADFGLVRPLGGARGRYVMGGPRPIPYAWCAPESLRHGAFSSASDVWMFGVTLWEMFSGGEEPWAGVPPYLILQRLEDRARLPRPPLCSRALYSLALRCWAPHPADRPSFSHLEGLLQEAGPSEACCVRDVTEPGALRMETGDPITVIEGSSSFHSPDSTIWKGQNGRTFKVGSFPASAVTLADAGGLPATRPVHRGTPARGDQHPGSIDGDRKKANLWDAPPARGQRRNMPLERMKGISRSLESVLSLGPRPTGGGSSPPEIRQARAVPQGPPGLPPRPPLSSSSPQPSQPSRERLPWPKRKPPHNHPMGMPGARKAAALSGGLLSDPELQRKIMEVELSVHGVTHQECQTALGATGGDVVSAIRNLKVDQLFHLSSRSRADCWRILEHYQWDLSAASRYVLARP

PLK4 (human) = PLK4 (human) (UniProt O00444); conditions: compound 10.0 µM
PIP4K2B (human) = PIP4K2B (human) (UniProt P78356); conditions: compound 10.0 µM
[2] = tested on: FLT3 (human), P36888 [N841I]; conditions: compound 10.0 µM
PHKG2 (human) = PHKG2 (human) (UniProt P15735); conditions: compound 10.0 µM
BMP2K (human) = BMP2K (human) (UniProt Q9NSY1); conditions: compound 10.0 µM
Chain of BMP2K (human) (Q9NSY1 whole entry, looked up): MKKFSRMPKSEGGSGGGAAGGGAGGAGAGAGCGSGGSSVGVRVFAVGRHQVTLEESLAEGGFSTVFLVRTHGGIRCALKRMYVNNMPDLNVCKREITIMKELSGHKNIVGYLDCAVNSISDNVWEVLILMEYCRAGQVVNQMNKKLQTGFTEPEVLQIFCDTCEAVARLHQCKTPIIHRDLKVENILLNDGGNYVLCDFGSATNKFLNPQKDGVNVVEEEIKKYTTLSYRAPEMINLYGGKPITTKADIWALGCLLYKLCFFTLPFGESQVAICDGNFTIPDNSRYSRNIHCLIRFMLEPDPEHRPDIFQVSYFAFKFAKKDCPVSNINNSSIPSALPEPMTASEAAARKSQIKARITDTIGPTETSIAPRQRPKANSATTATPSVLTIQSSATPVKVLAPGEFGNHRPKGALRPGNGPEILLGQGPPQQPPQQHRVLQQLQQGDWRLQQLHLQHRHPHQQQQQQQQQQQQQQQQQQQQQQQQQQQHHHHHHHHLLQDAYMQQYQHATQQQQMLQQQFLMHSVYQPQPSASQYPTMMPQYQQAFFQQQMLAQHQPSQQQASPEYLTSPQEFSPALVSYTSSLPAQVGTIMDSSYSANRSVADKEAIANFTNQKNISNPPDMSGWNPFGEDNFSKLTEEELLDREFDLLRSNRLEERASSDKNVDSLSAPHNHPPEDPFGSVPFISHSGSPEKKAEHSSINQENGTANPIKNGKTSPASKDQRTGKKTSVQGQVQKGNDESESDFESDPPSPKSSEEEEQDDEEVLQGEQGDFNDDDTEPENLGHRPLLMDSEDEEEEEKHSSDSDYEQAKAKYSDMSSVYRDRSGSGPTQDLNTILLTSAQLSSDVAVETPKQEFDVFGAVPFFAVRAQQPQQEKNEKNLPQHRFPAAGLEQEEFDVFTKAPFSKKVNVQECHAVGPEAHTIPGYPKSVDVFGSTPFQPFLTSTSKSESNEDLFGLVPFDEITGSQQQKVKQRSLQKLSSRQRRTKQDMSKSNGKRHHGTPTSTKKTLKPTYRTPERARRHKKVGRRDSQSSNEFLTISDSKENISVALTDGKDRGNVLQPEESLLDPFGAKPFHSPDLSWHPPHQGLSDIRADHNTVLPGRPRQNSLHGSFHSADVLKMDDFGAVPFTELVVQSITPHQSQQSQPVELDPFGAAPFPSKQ

[3] = tested on: FLT3 (human), P36888 [ITD]; conditions: compound 10.0 µM
STK17A (human) = STK17A (human) (UniProt Q9UEE5); conditions: compound 10.0 µM
SRPK3 (human) = SRPK3 (human) (UniProt Q9UPE1); conditions: compound 10.0 µM
CHUK (human) = CHUK (human) (UniProt O15111); conditions: compound 10.0 µM
Chain of CHUK (human) (O15111 whole entry, looked up): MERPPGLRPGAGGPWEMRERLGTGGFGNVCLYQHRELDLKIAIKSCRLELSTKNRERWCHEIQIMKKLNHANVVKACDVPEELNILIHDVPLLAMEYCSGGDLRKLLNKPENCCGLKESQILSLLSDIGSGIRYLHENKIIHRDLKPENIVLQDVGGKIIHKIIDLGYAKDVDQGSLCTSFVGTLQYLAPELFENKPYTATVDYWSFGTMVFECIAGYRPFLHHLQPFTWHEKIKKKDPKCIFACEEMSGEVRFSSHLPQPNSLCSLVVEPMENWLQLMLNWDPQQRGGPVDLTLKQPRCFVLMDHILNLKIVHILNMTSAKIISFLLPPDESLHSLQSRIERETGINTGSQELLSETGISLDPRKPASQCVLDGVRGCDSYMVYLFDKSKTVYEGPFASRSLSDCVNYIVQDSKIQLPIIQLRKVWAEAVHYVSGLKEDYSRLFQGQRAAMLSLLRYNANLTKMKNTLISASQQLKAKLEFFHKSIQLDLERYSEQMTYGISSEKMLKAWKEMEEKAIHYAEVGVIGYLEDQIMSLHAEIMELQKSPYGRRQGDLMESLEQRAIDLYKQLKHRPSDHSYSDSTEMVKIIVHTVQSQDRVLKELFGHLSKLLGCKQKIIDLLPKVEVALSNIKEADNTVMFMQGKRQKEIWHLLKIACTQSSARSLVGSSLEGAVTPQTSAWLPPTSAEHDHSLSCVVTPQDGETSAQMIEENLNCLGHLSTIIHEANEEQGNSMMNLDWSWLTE

SRPK2 (human) = SRPK2 (human) (UniProt P78362); conditions: compound 10.0 µM
AURKB (human) = AURKB (human) (UniProt Q96GD4); conditions: for kinase still bound, per cent of control: compound 10.0 µM
Chain of AURKB (human) (Q96GD4 whole entry, looked up): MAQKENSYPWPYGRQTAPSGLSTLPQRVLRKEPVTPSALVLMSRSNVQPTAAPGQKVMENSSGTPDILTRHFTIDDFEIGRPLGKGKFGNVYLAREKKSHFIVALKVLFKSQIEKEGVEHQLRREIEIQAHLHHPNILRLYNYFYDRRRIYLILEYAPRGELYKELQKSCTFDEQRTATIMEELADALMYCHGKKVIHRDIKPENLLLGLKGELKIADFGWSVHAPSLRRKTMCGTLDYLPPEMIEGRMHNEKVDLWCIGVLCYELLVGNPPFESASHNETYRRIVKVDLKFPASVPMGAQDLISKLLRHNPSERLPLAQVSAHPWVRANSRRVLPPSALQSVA

[4] = tested on: FLT3 (human), P36888 [D835H]; conditions: compound 10.0 µM
MAP4K4 (human) = MAP4K4 (human) (UniProt O95819); conditions: compound 10.0 µM
RIOK3 (human) = RIOK3 (human) (UniProt O14730); conditions: compound 10.0 µM
[5] = tested on: FLT3 (human), P36888 [D835Y]; conditions: compound 10.0 µM
STK24 (human) = STK24 (human) (UniProt Q9Y6E0); conditions: compound 10.0 µM
TGFBR2 (human) = TGFBR2 (human) (UniProt P37173); conditions: compound 10.0 µM
STK11 (human) = STK11 (human) (UniProt Q15831); conditions: compound 10.0 µM
BRSK2 (human) = BRSK2 (human) (UniProt Q8IWQ3); conditions: compound 10.0 µM
ACVR1 (human) = ACVR1 (human) (UniProt Q04771); conditions: compound 10.0 µM
MYLK4 (human) = MYLK4 (human) (UniProt Q86YV6); conditions: for kinase still bound, per cent of control: compound 10.0 µM
CSNK1G1 (human) = CSNK1G1 (human) (UniProt Q9HCP0); conditions: compound 10.0 µM
DMPK (human) = DMPK (human) (UniProt Q09013); conditions: compound 10.0 µM
TAOK3 (human) = TAOK3 (human) (UniProt Q9H2K8); conditions: compound 10.0 µM
GSK3A (human) = GSK3A (human) (UniProt P49840); conditions: compound 10.0 µM
RIPK2 (human) = RIPK2 (human) (UniProt O43353); conditions: compound 10.0 µM
CSNK1G3 (human) = CSNK1G3 (human) (UniProt Q9Y6M4); conditions: compound 10.0 µM
MAP4K2 (human) = MAP4K2 (human) (UniProt Q12851); conditions: compound 10.0 µM
STK33 (human) = STK33 (human) (UniProt Q9BYT3); conditions: compound 10.0 µM
BMPR1B (human) = BMPR1B (human) (UniProt O00238); conditions: compound 10.0 µM
CSNK1D (human) = CSNK1D (human) (UniProt P48730); conditions: compound 10.0 µM
PRKD3 (human) = PRKD3 (human) (UniProt O94806); conditions: compound 10.0 µM

Chain of PIM2 (human) (Q9P1W9 whole entry, looked up): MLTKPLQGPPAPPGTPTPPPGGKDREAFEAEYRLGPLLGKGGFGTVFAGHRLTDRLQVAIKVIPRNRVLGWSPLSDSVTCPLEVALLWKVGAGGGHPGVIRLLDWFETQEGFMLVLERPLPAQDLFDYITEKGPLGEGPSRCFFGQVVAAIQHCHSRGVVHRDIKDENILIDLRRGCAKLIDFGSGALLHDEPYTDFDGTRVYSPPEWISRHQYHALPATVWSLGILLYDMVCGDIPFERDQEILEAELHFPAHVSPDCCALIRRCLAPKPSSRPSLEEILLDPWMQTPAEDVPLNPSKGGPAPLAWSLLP

For `O=C1NC(=S)S/C1=C\c1ccc(-c2cncc3ccccc23)o1`, the kinase still bound, per cent of control (MYLK3 (human)) was 8.7%, the kinase still bound, per cent of control (PDGFRB (human)) was 18% and the kinase still bound, per cent of control (PIM2 (human)) was 0.55%. It also gave a kinase still bound, per cent of control (MAPK8 (human)) of 7%, a kinase still bound, per cent of control [1] of 26% and a kinase still bound, per cent of control (RPS6KA6 KD2 (human)) of 5.4%. For the same compound, the kinase still bound, per cent of control (PIP5K1A (human)) was 17%, the kinase still bound, per cent of control (RPS6KA2 KD2 (human)) was 6.2% and the kinase still bound, per cent of control (TTK (human)) was 17%. The kinase still bound, per cent of control (TNK1 (human)) was 8.4%, the kinase still bound, per cent of control (PLK4 (human)) was 0.85% and the kinase still bound, per cent of control (PIP4K2B (human)) was 5.5%. For the same compound, the kinase still bound, per cent of control [2] was 4%, the kinase still bound, per cent of control (PHKG2 (human)) was 8.1% and the kinase still bound, per cent of control (BMP2K (human)) was 0.4%. The kinase still bound, per cent of control [3] was 6.2%, the kinase still bound, per cent of control (STK17A (human)) was 0% and the kinase still bound, per cent of control (SRPK3 (human)) was 14%. For the same compound, the kinase still bound, per cent of control (CHUK (human)) was 8.4%, the kinase still bound, per cent of control (SRPK2 (human)) was 32% and the kinase still bound, per cent of control (AURKB (human)) was 27%. For the same compound, the kinase still bound, per cent of control [4] was 7.4%, the kinase still bound, per cent of control (MAP4K4 (human)) was 25% and the kinase still bound, per cent of control (RIOK3 (human)) was 5.5%. The kinase still bound, per cent of control [5] was 1.8%, the kinase still bound, per cent of control (STK24 (human)) was 12% and the kinase still bound, per cent of control (TGFBR2 (human)) was 5.2%. For the same compound, the kinase still bound, per cent of control (STK11 (human)) was 17%, the kinase still bound, per cent of control (BRSK2 (human)) was 29% and the kinase still bound, per cent of control (ACVR1 (human)) was 14%. For the same compound, the kinase still bound, per cent of control (MYLK4 (human)) was 0.25%.
With `CS(=O)(=O)Nc1ccc(-c2cncc(/C=C3\SC(=N)NC3=O)c2)cc1` the kinase still bound, per cent of control (MYLK3 (human)) was 19%, the kinase still bound, per cent of control (PDGFRB (human)) was 7.2% and the kinase still bound, per cent of control [1] was 6%. The kinase still bound, per cent of control (CSNK1G1 (human)) was 18%, the kinase still bound, per cent of control (DMPK (human)) was 22% and the kinase still bound, per cent of control (TNK1 (human)) was 28%. It also gave a kinase still bound, per cent of control (PLK4 (human)) of 5.6%, a kinase still bound, per cent of control [2] of 28% and a kinase still bound, per cent of control (TAOK3 (human)) of 4.7%. It also gave a kinase still bound, per cent of control (BMP2K (human)) of 22%, a kinase still bound, per cent of control [3] of 25% and a kinase still bound, per cent of control (GSK3A (human)) of 13%. It also gave a kinase still bound, per cent of control (STK17A (human)) of 0.45%, a kinase still bound, per cent of control (SRPK3 (human)) of 34% and a kinase still bound, per cent of control (CHUK (human)) of 19%. For the same compound, the kinase still bound, per cent of control (RIPK2 (human)) was 1.4%, the kinase still bound, per cent of control (AURKB (human)) was 24% and the kinase still bound, per cent of control [4] was 8.7%. It also gave a kinase still bound, per cent of control (MAP4K4 (human)) of 5.5%, a kinase still bound, per cent of control (RIOK3 (human)) of 19% and a kinase still bound, per cent of control (CSNK1G3 (human)) of 1%. It also gave a kinase still bound, per cent of control [5] of 3.8%, a kinase still bound, per cent of control (MAP4K2 (human)) of 5.8% and a kinase still bound, per cent of control (STK33 (human)) of 18%. The kinase still bound, per cent of control (TGFBR2 (human)) was 1.7%, the kinase still bound, per cent of control (BMPR1B (human)) was 10% and the kinase still bound, per cent of control (STK11 (human)) was 17%. It also gave a kinase still bound, per cent of control (CSNK1D (human)) of 1.4%, a kinase still bound, per cent of control (BRSK2 (human)) of 28% and a kinase still bound, per cent of control (ACVR1 (human)) of 1.8%. The kinase still bound, per cent of control (PRKD3 (human)) was 24% and the kinase still bound, per cent of control (MYLK4 (human)) was 29%.
Compound `N=C1NC(=O)/C(=C/c2ccc(-c3cncc4ccccc34)o2)S1` has a kinase still bound, per cent of control (MYLK3 (human)) of 0.55%, a kinase still bound, per cent of control (PDGFRB (human)) of 5.4% and a kinase still bound, per cent of control (PIM2 (human)) of 0.9%. The kinase still bound, per cent of control (MAPK8 (human)) was 20%, the kinase still bound, per cent of control [1] was 7.2% and the kinase still bound, per cent of control (RPS6KA6 KD2 (human)) was 8.6%. It also gave a kinase still bound, per cent of control (PIP5K1A (human)) of 3.3%, a kinase still bound, per cent of control (RPS6KA2 KD2 (human)) of 13% and a kinase still bound, per cent of control (TTK (human)) of 2.4%. It also gave a kinase still bound, per cent of control (TNK1 (human)) of 14%, a kinase still bound, per cent of control (PLK4 (human)) of 0.95% and a kinase still bound, per cent of control (PIP4K2B (human)) of 2.6%. For the same compound, the kinase still bound, per cent of control [2] was 0.95%, the kinase still bound, per cent of control (PHKG2 (human)) was 10% and the kinase still bound, per cent of control (TAOK3 (human)) was 26%. The kinase still bound, per cent of control (BMP2K (human)) was 0%, the kinase still bound, per cent of control [3] was 1.2% and the kinase still bound, per cent of control (GSK3A (human)) was 14%. For the same compound, the kinase still bound, per cent of control (STK17A (human)) was 0.05%, the kinase still bound, per cent of control (SRPK3 (human)) was 7.2% and the kinase still bound, per cent of control (CHUK (human)) was 1.4%. It also gave a kinase still bound, per cent of control (SRPK2 (human)) of 9.9%, a Kd (AURKB (human)) of 210 nM and a kinase still bound, per cent of control (AURKB (human)) of 0.8%. The kinase still bound, per cent of control [4] was 3.3%, the kinase still bound, per cent of control (RIOK3 (human)) was 2.2% and the kinase still bound, per cent of control [5] was 0.45%. The kinase still bound, per cent of control (STK24 (human)) was 16%, the kinase still bound, per cent of control (MAP4K2 (human)) was 6.9% and the kinase still bound, per cent of control (STK33 (human)) was 12%. The kinase still bound, per cent of control (TGFBR2 (human)) was 0.85%, the kinase still bound, per cent of control (STK11 (human)) was 6% and the kinase still bound, per cent of control (CSNK1D (human)) was 3.4%. It also gave a kinase still bound, per cent of control (BRSK2 (human)) of 7.1%, a kinase still bound, per cent of control (ACVR1 (human)) of 0.5% and a kinase still bound, per cent of control (PRKD3 (human)) of 26%. It also gave a Kd (MYLK4 (human)) of 55 nM and a kinase still bound, per cent of control (MYLK4 (human)) of 0.05%.
Compound `CSC1=NC(=O)/C(=C/c2c[nH]c(=O)c(-c3ccc(NS(C)(=O)=O)cc3)c2)S1` has a kinase still bound, per cent of control (PIM2 (human)) of 1.7%, a kinase still bound, per cent of control (PIP5K1A (human)) of 29% and a kinase still bound, per cent of control (RPS6KA2 KD2 (human)) of 16%. The kinase still bound, per cent of control (PLK4 (human)) was 14%, the kinase still bound, per cent of control (PIP4K2B (human)) was 18% and the kinase still bound, per cent of control (BMP2K (human)) was 2%. It also gave a kinase still bound, per cent of control (STK17A (human)) of 5%, a kinase still bound, per cent of control (SRPK3 (human)) of 14% and a kinase still bound, per cent of control (CHUK (human)) of 19%. It also gave a kinase still bound, per cent of control (SRPK2 (human)) of 13%, a kinase still bound, per cent of control (RIOK3 (human)) of 7.4% and a kinase still bound, per cent of control (MAP4K2 (human)) of 7.7%. For the same compound, the kinase still bound, per cent of control (TGFBR2 (human)) was 14%, the kinase still bound, per cent of control (BMPR1B (human)) was 7.4% and the kinase still bound, per cent of control (STK11 (human)) was 15%.
